Tests used:
[1] = biological target: T1, Glycogen synthase kinase-3 beta (Homo sapiens, UniProt P49841)
[2] = in vitro; details: mouse, ht-22
[3] = biological target: T2, Dual specificity tyrosine-phosphorylation-regulated kinase 3 (Homo sapiens, UniProt O43781); experiment: biochemical; type: cell-based, Sf9
T2 sequence (O43781 whole entry): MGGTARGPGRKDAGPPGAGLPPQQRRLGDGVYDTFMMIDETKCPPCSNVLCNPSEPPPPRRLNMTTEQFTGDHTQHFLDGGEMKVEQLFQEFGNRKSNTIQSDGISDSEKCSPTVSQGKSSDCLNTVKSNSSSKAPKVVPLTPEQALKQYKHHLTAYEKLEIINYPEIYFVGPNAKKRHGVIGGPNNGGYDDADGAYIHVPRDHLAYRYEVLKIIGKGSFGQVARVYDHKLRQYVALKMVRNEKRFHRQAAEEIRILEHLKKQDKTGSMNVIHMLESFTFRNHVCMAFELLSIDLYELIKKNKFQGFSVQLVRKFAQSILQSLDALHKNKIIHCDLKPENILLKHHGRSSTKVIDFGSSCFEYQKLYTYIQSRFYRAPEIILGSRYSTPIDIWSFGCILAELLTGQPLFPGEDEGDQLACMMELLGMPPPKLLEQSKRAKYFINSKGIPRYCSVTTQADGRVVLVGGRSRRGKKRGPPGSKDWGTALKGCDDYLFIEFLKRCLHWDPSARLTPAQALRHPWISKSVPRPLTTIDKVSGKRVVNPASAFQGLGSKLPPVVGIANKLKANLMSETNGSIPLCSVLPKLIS

[4] = biological target: T1, Glycogen synthase kinase-3 beta; experiment: biochemical; type: cell-based, Sf9
[5] = biological target: Dual specificity protein kinase CLK4 (Homo sapiens, UniProt Q9HAZ1); experiment: biochemical
Dual specificity protein kinase CLK4, sequence (Q9HAZ1 whole entry): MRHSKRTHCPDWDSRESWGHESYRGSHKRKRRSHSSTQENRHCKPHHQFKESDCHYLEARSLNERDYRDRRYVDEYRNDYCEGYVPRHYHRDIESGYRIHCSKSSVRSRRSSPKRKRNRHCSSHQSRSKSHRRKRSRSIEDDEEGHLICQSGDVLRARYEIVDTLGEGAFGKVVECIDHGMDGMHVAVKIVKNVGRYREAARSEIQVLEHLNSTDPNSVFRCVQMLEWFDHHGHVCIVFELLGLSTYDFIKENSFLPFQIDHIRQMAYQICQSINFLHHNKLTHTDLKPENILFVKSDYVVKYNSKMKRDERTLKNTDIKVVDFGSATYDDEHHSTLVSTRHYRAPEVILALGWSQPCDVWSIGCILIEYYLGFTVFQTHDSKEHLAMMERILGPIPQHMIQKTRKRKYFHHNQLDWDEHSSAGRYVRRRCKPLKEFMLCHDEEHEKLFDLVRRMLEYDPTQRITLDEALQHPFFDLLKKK

[6] = biological target: Cyclin-dependent kinase 5/CDK5 activator 1 (Homo sapiens, UniProt Q00535); experiment: biochemical; type: cell-based, Sf9
Cyclin-dependent kinase 5/CDK5 activator 1, sequence (Q00535 whole entry): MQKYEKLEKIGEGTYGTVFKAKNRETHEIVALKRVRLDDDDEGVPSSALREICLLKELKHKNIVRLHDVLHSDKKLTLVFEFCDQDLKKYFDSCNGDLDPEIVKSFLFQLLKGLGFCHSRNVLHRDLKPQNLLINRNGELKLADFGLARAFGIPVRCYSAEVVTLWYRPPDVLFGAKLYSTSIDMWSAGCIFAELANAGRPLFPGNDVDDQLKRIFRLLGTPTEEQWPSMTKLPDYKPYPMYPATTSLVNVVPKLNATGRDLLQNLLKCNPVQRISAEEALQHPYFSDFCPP
Cyclin-dependent kinase 5/CDK5 activator 1, sequence (Q15078 whole entry, further chain): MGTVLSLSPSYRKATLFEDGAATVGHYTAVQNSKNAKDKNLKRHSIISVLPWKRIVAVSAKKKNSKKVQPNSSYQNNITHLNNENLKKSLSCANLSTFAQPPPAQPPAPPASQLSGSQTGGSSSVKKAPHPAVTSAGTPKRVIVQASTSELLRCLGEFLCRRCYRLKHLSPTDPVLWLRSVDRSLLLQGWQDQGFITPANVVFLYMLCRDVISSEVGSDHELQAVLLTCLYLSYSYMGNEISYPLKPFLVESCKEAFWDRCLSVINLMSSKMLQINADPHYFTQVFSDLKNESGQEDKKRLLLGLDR

[7] = biological target: Dual specificity protein kinase CLK3 (Homo sapiens, UniProt P49761); experiment: biochemical; type: cell-based, Sf9
Dual specificity protein kinase CLK3, sequence (P49761 whole entry): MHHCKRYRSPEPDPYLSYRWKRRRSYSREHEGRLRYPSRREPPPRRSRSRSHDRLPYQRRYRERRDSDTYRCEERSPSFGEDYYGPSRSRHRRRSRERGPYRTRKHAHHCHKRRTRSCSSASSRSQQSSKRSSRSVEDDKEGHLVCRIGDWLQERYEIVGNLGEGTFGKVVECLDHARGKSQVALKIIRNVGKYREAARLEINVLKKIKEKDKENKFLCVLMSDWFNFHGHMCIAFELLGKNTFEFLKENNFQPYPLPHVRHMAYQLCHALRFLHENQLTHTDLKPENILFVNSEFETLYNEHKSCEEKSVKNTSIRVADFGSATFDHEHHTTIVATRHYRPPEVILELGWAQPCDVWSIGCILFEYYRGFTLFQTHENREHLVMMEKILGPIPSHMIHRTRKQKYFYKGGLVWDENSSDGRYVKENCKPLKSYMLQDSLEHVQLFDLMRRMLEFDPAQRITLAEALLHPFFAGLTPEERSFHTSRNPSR

[8] = biological target: T3, Dual specificity tyrosine-phosphorylation-regulated kinase 2 (Homo sapiens, UniProt Q92630); experiment: biochemical; type: cell-based, Sf9
T3 sequence (Q92630 whole entry): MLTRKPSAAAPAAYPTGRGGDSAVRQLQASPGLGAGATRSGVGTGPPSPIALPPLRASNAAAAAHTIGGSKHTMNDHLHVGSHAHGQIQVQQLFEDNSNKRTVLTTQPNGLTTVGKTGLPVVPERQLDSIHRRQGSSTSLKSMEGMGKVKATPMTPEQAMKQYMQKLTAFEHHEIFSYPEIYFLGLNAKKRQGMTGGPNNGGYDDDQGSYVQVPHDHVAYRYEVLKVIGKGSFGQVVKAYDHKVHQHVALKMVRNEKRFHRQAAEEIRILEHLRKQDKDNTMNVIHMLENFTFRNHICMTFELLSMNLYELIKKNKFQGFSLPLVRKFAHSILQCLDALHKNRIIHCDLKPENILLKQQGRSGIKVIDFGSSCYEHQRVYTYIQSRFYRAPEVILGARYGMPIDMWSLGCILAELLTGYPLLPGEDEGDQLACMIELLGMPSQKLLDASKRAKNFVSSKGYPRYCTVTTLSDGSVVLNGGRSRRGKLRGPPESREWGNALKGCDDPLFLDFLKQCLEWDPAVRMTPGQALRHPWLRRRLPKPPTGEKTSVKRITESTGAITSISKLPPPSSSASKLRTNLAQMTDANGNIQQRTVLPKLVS

[9] = biological target: T4, Dual specificity tyrosine-phosphorylation-regulated kinase 4 (Homo sapiens, UniProt Q9NR20); experiment: biochemical; type: cell-based, Sf9
T4 sequence (Q9NR20 whole entry): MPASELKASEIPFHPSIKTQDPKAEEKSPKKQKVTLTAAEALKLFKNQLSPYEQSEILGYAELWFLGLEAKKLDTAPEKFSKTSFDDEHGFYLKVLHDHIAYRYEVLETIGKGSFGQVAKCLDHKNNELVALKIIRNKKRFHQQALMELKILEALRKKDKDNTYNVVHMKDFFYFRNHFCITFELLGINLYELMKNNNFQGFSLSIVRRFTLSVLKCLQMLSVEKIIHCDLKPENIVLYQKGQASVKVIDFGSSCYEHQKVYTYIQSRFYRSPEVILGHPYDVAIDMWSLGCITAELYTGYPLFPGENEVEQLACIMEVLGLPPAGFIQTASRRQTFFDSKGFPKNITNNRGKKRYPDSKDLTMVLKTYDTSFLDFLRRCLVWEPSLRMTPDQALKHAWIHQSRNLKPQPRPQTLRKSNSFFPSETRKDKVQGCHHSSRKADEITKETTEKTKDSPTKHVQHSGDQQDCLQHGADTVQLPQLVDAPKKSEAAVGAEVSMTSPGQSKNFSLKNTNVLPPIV

[10] = biological target: Casein kinase I isoform epsilon (Homo sapiens, UniProt P49674); experiment: biochemical; type: cell-based, Sf9
Casein kinase I isoform epsilon, sequence (P49674 whole entry, canonical isoform): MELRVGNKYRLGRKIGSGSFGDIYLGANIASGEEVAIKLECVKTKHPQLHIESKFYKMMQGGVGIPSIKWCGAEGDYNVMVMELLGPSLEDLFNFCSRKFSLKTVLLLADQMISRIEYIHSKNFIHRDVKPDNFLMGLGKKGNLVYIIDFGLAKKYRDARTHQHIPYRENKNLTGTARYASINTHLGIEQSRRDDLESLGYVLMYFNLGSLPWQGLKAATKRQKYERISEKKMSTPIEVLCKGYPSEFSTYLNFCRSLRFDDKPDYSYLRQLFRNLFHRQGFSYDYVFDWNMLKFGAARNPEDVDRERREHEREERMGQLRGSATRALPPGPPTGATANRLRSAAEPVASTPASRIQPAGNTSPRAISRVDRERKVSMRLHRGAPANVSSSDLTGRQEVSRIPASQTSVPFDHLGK

[11] = biological target: Dual specificity protein kinase CLK2 (Homo sapiens, UniProt P49760); experiment: biochemical
Dual specificity protein kinase CLK2, sequence (P49760 whole entry): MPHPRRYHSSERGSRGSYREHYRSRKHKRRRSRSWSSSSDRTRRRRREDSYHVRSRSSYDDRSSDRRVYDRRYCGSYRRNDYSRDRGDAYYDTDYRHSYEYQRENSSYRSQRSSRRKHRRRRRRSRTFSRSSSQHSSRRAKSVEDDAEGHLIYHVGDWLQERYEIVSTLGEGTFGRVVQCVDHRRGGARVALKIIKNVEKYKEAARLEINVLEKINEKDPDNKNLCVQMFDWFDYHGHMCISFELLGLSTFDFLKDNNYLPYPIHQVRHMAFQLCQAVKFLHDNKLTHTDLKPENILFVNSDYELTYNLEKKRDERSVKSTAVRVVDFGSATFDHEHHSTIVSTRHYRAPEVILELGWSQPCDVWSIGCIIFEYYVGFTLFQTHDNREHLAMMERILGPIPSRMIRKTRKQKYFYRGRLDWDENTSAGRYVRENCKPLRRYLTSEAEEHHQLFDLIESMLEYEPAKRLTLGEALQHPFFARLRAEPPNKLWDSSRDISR

[12] = biological target: T5, Dual specificity protein kinase CLK1 (Homo sapiens, UniProt P49759)
T5 sequence (P49759 whole entry): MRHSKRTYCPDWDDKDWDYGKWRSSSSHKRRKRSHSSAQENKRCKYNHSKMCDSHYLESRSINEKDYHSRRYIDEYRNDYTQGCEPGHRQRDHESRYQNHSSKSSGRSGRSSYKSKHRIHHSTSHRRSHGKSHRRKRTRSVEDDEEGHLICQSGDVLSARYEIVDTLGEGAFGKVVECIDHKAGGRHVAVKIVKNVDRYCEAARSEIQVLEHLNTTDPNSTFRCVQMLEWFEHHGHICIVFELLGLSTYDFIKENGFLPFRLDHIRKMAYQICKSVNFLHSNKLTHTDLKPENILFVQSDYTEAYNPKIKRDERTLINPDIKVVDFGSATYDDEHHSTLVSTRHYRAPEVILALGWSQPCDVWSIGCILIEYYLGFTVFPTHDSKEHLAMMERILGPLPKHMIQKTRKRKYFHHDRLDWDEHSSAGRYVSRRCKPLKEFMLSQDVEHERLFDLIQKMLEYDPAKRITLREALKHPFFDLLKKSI

[13] = biological target: T5, Dual specificity protein kinase CLK1; experiment: biochemical; type: cell-based, Sf9
[14] = biological target: T5, Dual specificity protein kinase CLK1; experiment: biochemical; type: cell-based, Sf9; remark: listed apart in the source

T1 sequence (P49841 whole entry): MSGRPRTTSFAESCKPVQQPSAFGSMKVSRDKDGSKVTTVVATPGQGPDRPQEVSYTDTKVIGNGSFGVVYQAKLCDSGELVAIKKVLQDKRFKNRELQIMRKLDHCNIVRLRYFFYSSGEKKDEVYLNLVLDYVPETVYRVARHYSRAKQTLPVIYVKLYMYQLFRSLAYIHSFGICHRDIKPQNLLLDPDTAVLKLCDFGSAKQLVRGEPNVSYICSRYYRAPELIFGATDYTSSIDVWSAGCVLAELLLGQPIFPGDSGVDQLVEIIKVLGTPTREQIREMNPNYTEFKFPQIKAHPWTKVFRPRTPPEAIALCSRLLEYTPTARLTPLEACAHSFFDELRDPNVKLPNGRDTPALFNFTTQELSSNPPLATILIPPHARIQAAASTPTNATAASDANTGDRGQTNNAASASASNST

Compound | Kd [1] [nM] | IC50 at 48 h [2] [µM] | IC50 [3] [µM] | IC50 [4] [µM] | IC50 [5] [nM] | IC50 [6] [µM] | IC50 [7] [nM] | IC50 [8] [nM] | IC50 [9] [µM] | IC50 [10] [µM] | IC50 [11] [nM] | Kd [12] [nM] | IC50 [13] [nM] | IC50 ([14]; read-out: IC50) [nM] | IC50 ([14]; sf9)
Cc1nc2ccc(-c3cc(N)nc(N)c3)nc2n1C(C)C | 9590 | 5.8 | > 10 | > 10 | 9.5 | 0.273 | 1190 | 10 | 0.171 | 2.9 | 36.5 | – | – | – | –
CN(C)c1nccc(-c2cnn3ncccc23)n1 | > 10000 | 58.6 | 4.45 | > 10 | 219 | 9.67 | 2970 | 3270 | 9.59 | > 10 | – | 5.38 | 319 | – | –
Oc1ccc(-c2n[nH]c3ncc(-c4ccc(O)c(O)c4)cc23)cc1 | 260 | 5.5 | 0.0719 | 0.159 | 4.7 | 0.0384 | 207 | 32.9 | 0.0268 | 0.0389 | 14.3 | 1.31 | 10.4 | 37.9 | –
O=C1NC(=Nc2c(Cl)cccc2Cl)S/C1=C\c1ccc2nccnc2c1 | 939 | 27.8 | 0.0227 | 3.09 | 14 | > 10 | 92.6 | 15.6 | 0.108 | 1.77 | 95.3 | 0.395 | 21.1 | 13.6 | –
CN1Cc2nn(C)c(C#N)c2-c2cnc3[nH]c(F)c(c3c2)-c2cn(nc2C(F)(F)F)CCCC1=O | 936 | > 100 | > 10 | 3.39 | > 10000 | > 10 | > 10000 | 1100 | > 10 | > 10 | 2500 | – | – | – | Not Active
CN1Cc2nn(C)c(C#N)c2-c2cnc3[nH]cc(c3c2)-c2cn(nc2C(F)(F)F)CCCC1=O | 7290 | 51.3 | > 10 | > 10 | – | > 10 | > 10000 | 8780 | > 10 | > 10 | 6710 | – | – | – | –
COC1=CC2C(=O)NC3=Cc4ccc(OC)cc4C(=C1OC)C32 (configuration not stated) | 396 | 20.9 | 0.0235 | 2.2 | 6.7 | > 10 | 640 | 26.8 | 3.69 | > 10 | 33.3 | 0.58 | 11.4 | 31.8 | –
O=c1c2c(O)cc(O)cc2oc2c(O)ccc(O)c12 [DEMETHYLBELLIDIFOLIN] | > 10000 | 2.5 | > 10 | > 10 | 146 | > 10 | 7530 | 2710 | > 10 | > 10 | 1700 | 29.7 | 239 | – | –
CN1C(=O)/C(=C/c2ccc3c(c2)OCO3)N=C1N [LEUCETTAMINE B] | > 10000 | > 100 | 4.89 | > 10 | 396 | – | > 10000 | 2730 | 6.37 | > 10 | 3090 | 36.9 | 646 | – | –

— ChEMBL document CHEMBL5247649, “Comparative Efficacy and Selectivity of Pharmacological Inhibitors of DYRK and CLK Protein Kinases” (J Med Chem, 2023)
